Legend:
ducksalad = assay: Test B flooded paddy test; type: in vivo, Heteranthera limosa; conditions: 250 g ai/ha, Flood, 13 days, 0 to 100 scale (0 no effect, 100 complete control)
Method in brief: (§1)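 Percent weed or crop control, judged by eye on a 0–100 scale 13 days post-treatment, reflects compound added to a 3 cm flood maintained over 2-leaf plants in the greenhouse. Missing entries are marked with a dash.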

kochia [1] = assay: Test A postemergence; type: in vivo, Bassia scoparia
Method in brief: (§2)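 Greenhouse pot test, 10 days. Compound (non-phytotoxic solvent, surfactant) sprayed on soil at seeding or on seedlings at one- to two-leaf stage. Visual injury rated 0–100 against untreated plants.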

wheat [2] = assay: Test A postemergence; type: in vivo, Triticum aestivum
Method in brief: as §2

goosegrass [3] = assay: Test A preemergence; type: in vivo, Eleusine indica
Method in brief: as §2

ryegrass, Italian [4] = assay: Test A preemergence; type: in vivo, Lolium multiflorum
Method in brief: as §2

sedge, umbrella = assay: Test B flooded paddy test; type: in vivo, Cyperus difformis; conditions: 250 g ai/ha, Flood, 13 days, 0 to 100 scale (0 no effect, 100 complete control)
Method in brief: as §1

oat, wild [5] = assay: Test A postemergence; type: in vivo, Avena fatua
Method in brief: as §2

wheat [6] = assay: Test A preemergence; type: in vivo, Triticum aestivum
Method in brief: as §2

corn [7] = assay: Test A preemergence; type: in vivo, Zea mays
Method in brief: as §2

soybean [8] = assay: Test A postemergence; type: in vivo, Glycine max
Method in brief: as §2

ragweed [9] = assay: Test A postemergence; type: in vivo, Ambrosia artemisiifolia
Method in brief: as §2

foxtail, giant [10] = assay: Test A postemergence; type: in vivo, Setaria faberi
Method in brief: as §2

pigweed, palmer [11] = assay: Test A postemergence; type: in vivo, Amaranthus palmeri
Method in brief: as §2

goosegrass [12] = assay: Test A postemergence; type: in vivo, Eleusine indica
Method in brief: as §2

galium = assay: Test A postemergence; type: in vivo, Galium aparine
Method in brief: as §2

oat, wild [13] = assay: Test A preemergence; type: in vivo, Avena fatua
Description: Seeds of plant species selected from barnyardgrass (Echinochloa crusgalli), blackgrass (Alopecurus myosuroides), corn (Zea mays), foxtail, giant (giant foxtail, Setaria faberi), goosegrass (Eleusine indica), kochia (Bassia scoparia), oat, wild (wild oat, Avena fatua), pigweed, palmer (palmer amaranth, palmer pigweed, Amaranthus palmeri), Pigweed, Redroot (redroot pigweed, Amaranthus retroflexus), ragweed (common ragweed, Ambrosia artemisiifolia), ryegrass, Italian (italian ryegrass, Lolium multiflorum), soybean (Glycine max), and wheat (Triticum aestivum) were planted into a blend of loam soil and sand and treated preemergence with a directed soil spray using test chemicals formulated in a non-phytotoxic solvent mixture which included a surfactant. At the same time, plants selected from these crops and weed species and also galium (catchweed bedstraw, Galium aparine) and horseweed (Erigeron canadensis) were planted in pots containing the same blend of loam soil and sand and treated with postemergence applications of test chemicals formulated in the same manner. Plants ranged in height from 2 to 10 cm and were in the one- to two-leaf stage for the postemergence treatment. Treated plants and untreated controls were maintained in a greenhouse for 10 days, after which time all treated plants were compared to untreated controls and visually evaluated for injury. Plant response ratings, summarized in Table A, are based on a 0 to 100 scale where 0 is no effect and 100 is complete control. A dash (-) response means no test result.

rice = assay: Test B flooded paddy test; type: in vivo, Oryza sativa; conditions: 250 g ai/ha, Flood, 13 days, 0 to 100 scale (0 no effect, 100 complete control)
Method in brief: as §1

foxtail, giant [14] = assay: Test A preemergence; type: in vivo, Setaria faberi
Method in brief: as §2

blackgrass [15] = assay: Test A preemergence; type: in vivo, Alopecurus myosuroides
Method in brief: as §2

kochia [16] = assay: Test A preemergence; type: in vivo, Bassia scoparia
Method in brief: as §2

corn [17] = assay: Test A postemergence; type: in vivo, Zea mays
Method in brief: as §2

barnyardgrass = assay: Test B flooded paddy test; type: in vivo, Echinochloa crus-galli; conditions: 250 g ai/ha, Flood, 13 days, 0 to 100 scale (0 no effect, 100 complete control)
Method in brief: as §1

blackgrass [18] = assay: Test A postemergence; type: in vivo, Alopecurus myosuroides
Method in brief: as §2

ryegrass, Italian [19] = assay: Test A postemergence; type: in vivo, Lolium multiflorum
Method in brief: as §2

soybean [20] = assay: Test A preemergence; type: in vivo, Glycine max
Method in brief: as §2

pigweed, palmer [21] = assay: Test A preemergence; type: in vivo, Amaranthus palmeri
Method in brief: as §2

ragweed [22] = assay: Test A preemergence; type: in vivo, Ambrosia artemisiifolia
Method in brief: as §2

[23] = 125 g ai/ha, postemergence, 10 days, visual injury, 0 to 100 scale (0 no effect, 100 complete control)
[24] = 500 g ai/ha, Postemergence, 0 to 100 scale
[25] = 125 g ai/ha, visual injury after 10 days, 0 to 100 scale, 0 is no effect, 100 is complete control
[26] = 500 g ai/ha, 0 to 100 scale (0 no effect, 100 complete control), 10 days

SMILES: CC1CN(C(=O)c2cccc(-n3cncn3)c2)c2cccc(C3CC3)c2O1 (stereo not shown) [Compound 42]
- Plant response rating, Ducksalad (ducksalad): 0
- Plant response rating, Kochia (kochia [1]; [23]): 0
- Plant response rating, Kochia (kochia [1]; [24]): 80
- Plant response rating, Wheat (wheat [2]; [23]): 0
- Plant response rating, Wheat (wheat [2]; [24]): 20
- Plant response rating, Goosegrass (goosegrass [3]; [25]): 30
- Plant response rating, Goosegrass (goosegrass [3]; [26]): 90
- Plant response rating, Ryegrass, Italian (ryegrass, Italian [4]; [25]): 50
- Plant response rating, Ryegrass, Italian (ryegrass, Italian [4]; [26]): 100
- Plant response rating, Sedge, Umbrella (sedge, umbrella): 0
- Plant response rating, Oat, Wild (oat, wild [5]; [23]): 0
- Plant response rating, Oat, Wild (oat, wild [5]; [24]): 10
- Plant response rating, Wheat (wheat [6]; [25]): 0
- Plant response rating, Wheat (wheat [6]; [26]): 20
- Plant response rating, Corn (corn [7]; [25]): 0
- Plant response rating, Corn (corn [7]; [26]): 0
- Plant response rating, Soybean (soybean [8]; [23]): 70
- Plant response rating, Soybean (soybean [8]; [24]): 90
- Plant response rating, Ragweed (ragweed [9]; [23]): 0
- Plant response rating, Ragweed (ragweed [9]; [24]): 0
- Plant response rating, Foxtail, Giant (foxtail, giant [10]; [23]): 20
- Plant response rating, Foxtail, Giant (foxtail, giant [10]; [24]): 70
- Plant response rating, Pigweed, Palmer (pigweed, palmer [11]; [23]): 30
- Plant response rating, Pigweed, Palmer (pigweed, palmer [11]; [24]): 10
- Plant response rating, Goosegrass (goosegrass [12]; [23]): 20
- Plant response rating, Goosegrass (goosegrass [12]; [24]): 30
- Plant response rating, Galium (galium; [23]): 50
- Plant response rating, Galium (galium; [24]): 70
- Plant response rating, Oat, Wild (oat, wild [13]; [25]): 0
- Plant response rating, Oat, Wild (oat, wild [13]; [26]): 50
- Plant response rating, Rice (rice): 0
- Plant response rating, Foxtail, Giant (foxtail, giant [14]; [25]): 10
- Plant response rating, Foxtail, Giant (foxtail, giant [14]; [26]): 90
- Plant response rating, Blackgrass (blackgrass [15]; [25]): 30
- Plant response rating, Blackgrass (blackgrass [15]; [26]): 60
- Plant response rating, Kochia (kochia [16]; [25]): 0
- Plant response rating, Kochia (kochia [16]; [26]): 20
- Plant response rating, Corn (corn [17]; [23]): 10
- Plant response rating, Corn (corn [17]; [24]): 40
- Plant response rating, Barnyardgrass (barnyardgrass): 0
- Plant response rating, Blackgrass (blackgrass [18]; [23]): 0
- Plant response rating, Blackgrass (blackgrass [18]; [24]): 40
- Plant response rating, Ryegrass, Italian (ryegrass, Italian [19]; [23]): 0
- Plant response rating, Ryegrass, Italian (ryegrass, Italian [19]; [24]): 50
- Plant response rating, Soybean (soybean [20]; [25]): 0
- Plant response rating, Soybean (soybean [20]; [26]): 0
- Plant response rating, Pigweed, Palmer (pigweed, palmer [21]; [25]): 10
- Plant response rating, Pigweed, Palmer (pigweed, palmer [21]; [26]): 80
- Plant response rating, Ragweed (ragweed [22]; [25]): 0
- Plant response rating, Ragweed (ragweed [22]; [26]): 0

SMILES: Cc1cc(F)cc2c1OC(C)CN2C(=O)c1cccc(-n2cncn2)c1 (stereo not shown) [Compound 44]
- Plant response rating, Ducksalad (ducksalad): 0
- Plant response rating, Kochia (kochia [1]; [23]): 10
- Plant response rating, Kochia (kochia [1]; [24]): 20
- Plant response rating, Wheat (wheat [2]; [23]): 30
- Plant response rating, Wheat (wheat [2]; [24]): 80
- Plant response rating, Goosegrass (goosegrass [3]; [25]): 90
- Plant response rating, Goosegrass (goosegrass [3]; [26]): 100
- Plant response rating, Ryegrass, Italian (ryegrass, Italian [4]; [25]): 80
- Plant response rating, Ryegrass, Italian (ryegrass, Italian [4]; [26]): 100
- Plant response rating, Sedge, Umbrella (sedge, umbrella): 0
- Plant response rating, Oat, Wild (oat, wild [5]; [23]): 0
- Plant response rating, Oat, Wild (oat, wild [5]; [24]): 80
- Plant response rating, Wheat (wheat [6]; [25]): 0
- Plant response rating, Wheat (wheat [6]; [26]): 40
- Plant response rating, Corn (corn [7]; [25]): 10
- Plant response rating, Corn (corn [7]; [26]): 30
- Plant response rating, Soybean (soybean [8]; [23]): 100
- Plant response rating, Soybean (soybean [8]; [24]): 100
- Plant response rating, Ragweed (ragweed [9]; [23]): 0
- Plant response rating, Ragweed (ragweed [9]; [24]): 0
- Plant response rating, Foxtail, Giant (foxtail, giant [10]; [23]): 40
- Plant response rating, Foxtail, Giant (foxtail, giant [10]; [24]): 90
- Plant response rating, Pigweed, Palmer (pigweed, palmer [11]; [23]): 30
- Plant response rating, Pigweed, Palmer (pigweed, palmer [11]; [24]): 10
- Plant response rating, Goosegrass (goosegrass [12]; [23]): 30
- Plant response rating, Goosegrass (goosegrass [12]; [24]): 70
- Plant response rating, Galium (galium; [23]): 50
- Plant response rating, Galium (galium; [24]): 70
- Plant response rating, Oat, Wild (oat, wild [13]; [25]): 10
- Plant response rating, Oat, Wild (oat, wild [13]; [26]): 50
- Plant response rating, Rice (rice): 0
- Plant response rating, Foxtail, Giant (foxtail, giant [14]; [25]): 70
- Plant response rating, Foxtail, Giant (foxtail, giant [14]; [26]): 100
- Plant response rating, Blackgrass (blackgrass [15]; [25]): 10
- Plant response rating, Blackgrass (blackgrass [15]; [26]): 80
- Plant response rating, Kochia (kochia [16]; [25]): 0
- Plant response rating, Kochia (kochia [16]; [26]): 20
- Plant response rating, Corn (corn [17]; [23]): 30
- Plant response rating, Corn (corn [17]; [24]): 70
- Plant response rating, Barnyardgrass (barnyardgrass): 0
- Plant response rating, Blackgrass (blackgrass [18]; [23]): 30
- Plant response rating, Blackgrass (blackgrass [18]; [24]): 60
- Plant response rating, Ryegrass, Italian (ryegrass, Italian [19]; [23]): 50
- Plant response rating, Ryegrass, Italian (ryegrass, Italian [19]; [24]): 80
- Plant response rating, Soybean (soybean [20]; [25]): 40
- Plant response rating, Soybean (soybean [20]; [26]): 70
- Plant response rating, Pigweed, Palmer (pigweed, palmer [21]; [25]): 10
- Plant response rating, Pigweed, Palmer (pigweed, palmer [21]; [26]): 20
- Plant response rating, Ragweed (ragweed [22]; [25]): 0
- Plant response rating, Ragweed (ragweed [22]; [26]): 0
